Reference: patent US20180244616A1, “LACTAM COMPOSITIONS” (Conopco, Inc., a/b/a UNILEVER, priority 2015, published 2018)

Key:
[1] = test system: gram-negative bacteria; assay: anti-bacterial activity against gram-negative bacteria; assay type: cell-based
[2] = toxicity compared to other lactams having anti-microbial activity
[3] = test system: gram-positive bacteria; assay: anti-bacterial activity against gram-positive bacteria; assay type: cell-based

Question: With `C=C1NC(=O)C=C1c1ccc(C)cc1` [5-methylene-4-(p-tolyl)pyrrol-2-one] as the compound, how does the “anti-bacterial activity against gram-negative bacteria” value [1] read?
Answer: Its value is “shows selective activity”.

Question: And the toxicity [2]?
Answer: Its toxicity is “unexpectedly low toxicity”.

Question: Which “anti-bacterial activity against gram-negative bacteria” value [1] does the source give for `C=C1NC(=O)C=C1c1ccc(Cl)cc1` [4-(4-chlorophenyl)-5-methylene-pyrrol-2-one] here?
Answer: The value was “shows activity”.

Question: What about the “anti-bacterial activity against gram-positive bacteria” value [3] of the same compound?
Answer: Its value is “shows activity”.

Question: And the toxicity [2]?
Answer: The toxicity was “unexpectedly low toxicity”.
